In patent publication US11925624B2, “Methods of administering anti-fibrotic therapy” (GENENTECH, INC., priority 2016, dated 2024):
“And” between values parts separate entries of the source, which are not always exact repeats. Equal values may be shown once. “Also recorded” adds a separate entry of the source. Read-outs that look alike come from different tables or passages of the source.

Experiment: Phase 1 single ascending dose (Part A) pharmacokinetics, fasted state
Type: in vivo, human
Settings: for % AUCextrap: arithmetic mean; for AUC(0-inf) / AUC(0-t) / Cmax / Vd/F / half-life / Tmax / CL renal: human; for AUC(0-inf) / AUC(0-t) / Cmax / Vd/F / half-life / Tmax: plasma
Procedure: A Phase 1, randomized, blinded, placebo-controlled safety, tolerability, and pharmacokinetic study of Compound I in 80 healthy adult subjects was conducted.
This study was a randomized, blinded, placebo-controlled, ascending-dose study to evaluate the safety, tolerability, and pharmacokinetic (PK) of single (Part A) and multiple (Part B) doses of Compound I in healthy subjects. In addition, the effects of a standard high-fat breakfast, standard low-fat breakfast, and pretreatment and co-administration of a proton pump inhibitor (PPI) on the tolerability and PK of a single dose of Compound I were investigated in 2 groups in Part A. All subjects received their full dose of Compound I, administered as the appropriate number of either 25 or 200 mg tablets. The high fat breakfast comprised the following: total energy: 895 kcal; total fat: 61 g; total protein: 41 g; total carbohydrate: 46 g. The low fat breakfast comprised the following: total energy: 611 kcal; total fat: 14.7 g; total protein: 20.3 g; total carbohydrate: 106.3 g.
In Part A, 56 subjects were studied in 6 groups (Groups A1 to A6) with each of Groups A1, A2, A3, A5, and A6 composed of 8 subjects (6 received Compound I, 2 received placebo) and Group A4 was composed of 16 subjects (12 received Compound I, 4 received placebo). The first dose group (A1) included a sentinel cohort of 2 subjects (1 subject received Compound I and 1 subject received placebo) dosed 48 hours in advance of the remainder of the group.
All subjects in Groups A1 through A6 participated in Treatment Period 1 and received the fasted treatment regimen. In Treatment Period 1, subjects resided at the Clinical Research Unit (CRU) from Day −1 (the day before dosing) to Day 4 (72 hours post-dose). In Treatment Period 1, all doses were administered on the morning of Day 1, after an overnight fast of at least 8 hours. In Groups A1, A2, A3, and A6, each subject received only a single dose of Compound I (25 mg in Group A1, 75 mg in Group A2, 200 mg in Group A3, and 1600 mg in Group A6) or placebo (per the randomization schedule) during the study.
In Part A, all doses in Treatment Period 1 were administered after an overnight fast of at least 8 hours. For the A4 cohort, in Treatment Periods 2 and 3, doses were administered 30 minutes after starting and approximately 10 minutes after completing a high- or low-fat breakfast. In Treatment Period 4, the dose was administered after an overnight fast and following administration of a PPI (PPI was comprised of 3 doses of rabeprazole 20 mg, starting on Day −2 and with the final dose 2 hours before Compound I administration on Day 1). For Group A5, doses during Treatment Period 2 were administered 30 minutes after starting and approximately 10 minutes after completing a low-fat standard breakfast on the morning of Day 1, and doses during Treatment Period 3 were administered on Day 1 after a low-fat meal and following administration of a PPI for 3 days (given as 3 QD doses, with the final PPI dose at 2 hours prior to study drug administration on Day 1).

[1] = 75 mg vs 25 mg (3-fold increase in dose)
[2] = 800-mg dose level (32.0-fold increase in dose)

SMILES: Cn1cc(-c2cn(-c3ccc(OC(F)(F)F)cc3)c(=O)c3ncn(C)c23)cn1 [Compound I]
- AUC0-t (norm) (25 mg single dose (A1)): 13400 hr*ng/mL/(mg/kg)
- AUC0-∞ (norm) (25 mg single dose (A1)): 13600 hr*ng/mL/(mg/kg)
- Ae0-24 (25 mg single dose (A1)): 19.2 mg
- CL/F (25 mg single dose (A1)): 90.5 mL/min
- CL/F(norm) (25 mg single dose (A1)): 1.23 (mL/min)/kg
- Cmax (norm) (25 mg single dose (A1)): 2700 ng/mL/(mg/kg)
- fe0-24 (25 mg single dose (A1)): 76.9%
- t1/2 (25 mg single dose (A1)): 3.61 h
- λZ (25 mg single dose (A1)): 0.192 h⁻¹
- % AUCextrap (25 mg single dose (A1)): 1.25%
- AUC0-t (norm) (75 mg single dose (A2)): 12600 hr*ng/mL/(mg/kg)
- AUC0-∞ (norm) (75 mg single dose (A2)): 12600 hr*ng/mL/(mg/kg)
- Ae0-24 (75 mg single dose (A2)): 54.8 mg
- CL/F (75 mg single dose (A2)): 96.0 mL/min
- CL/F(norm) (75 mg single dose (A2)): 1.32 (mL/min)/kg
- Cmax (norm) (75 mg single dose (A2)): 2180 ng/mL/(mg/kg)
- fe0-24 (75 mg single dose (A2)): 73.0%
- t1/2 (75 mg single dose (A2)): 5.02 h
- λZ (75 mg single dose (A2)): 0.138 h⁻¹
- % AUCextrap (75 mg single dose (A2)): 0.486%
- Fold increase in AUC0-t [1]: 2.9 fold
- Fold increase in AUC0-∞ [1]: 2.8 fold
- Fold increase in Cmax [1]: 2.5 fold
- AUC0-t (norm) (200 mg single dose (A3)): 12000 hr*ng/mL/(mg/kg)
- AUC0-∞ (norm) (200 mg single dose (A3)): 12100 hr*ng/mL/(mg/kg)
- Ae0-24 (200 mg single dose (A3)): 105 mg
- CL/F (200 mg single dose (A3)): 102 mL/min
- CL/F(norm) (200 mg single dose (A3)): 1.38 (mL/min)/kg
- Cmax (norm) (200 mg single dose (A3)): 1140 ng/mL/(mg/kg)
- fe0-24 (200 mg single dose (A3)): 52.5%
- λZ (200 mg single dose (A3)): 0.0602 h⁻¹
- % AUCextrap (200 mg single dose (A3)): 0.969%
- AUC0-t (norm) (400 mg single dose (A4)): 9420 hr*ng/mL/(mg/kg)
- AUC0-∞ (norm) (400 mg single dose (A4)): 9650 hr*ng/mL/(mg/kg)
- Ae0-24 (400 mg single dose (A4)): 133 mg
- CL/F (400 mg single dose (A4)): 121 mL/min
- CL/F(norm) (400 mg single dose (A4)): 1.73 (mL/min)/kg
- Cmax (norm) (400 mg single dose (A4)): 790 ng/mL/(mg/kg)
- fe0-24 (400 mg single dose (A4)): 33.3%
- λZ (400 mg single dose (A4)): 0.0594 h⁻¹
- % AUCextrap (400 mg single dose (A4)): 2.37%
- AUC0-t (norm) (800 mg single dose (A5)): 6700 hr*ng/mL/(mg/kg)
- AUC0-∞ (norm) (800 mg single dose (A5)): 7080 hr*ng/mL/(mg/kg)
- Ae0-24 (800 mg single dose (A5)): 172 mg
- CL/F (800 mg single dose (A5)): 169 mL/min
- CL/F(norm) (800 mg single dose (A5)): 2.35 (mL/min)/kg
- Cmax (norm) (800 mg single dose (A5)): 532 ng/mL/(mg/kg)
- fe0-24 (800 mg single dose (A5)): 21.5%
- λZ (800 mg single dose (A5)): 0.0433 h⁻¹
- % AUCextrap (800 mg single dose (A5)): 5.17%
- Increase in AUC and Cmax (1600 mg dose compared to 800 mg dose): no significant increase
- AUC0-t (norm) (1600 mg single dose (A6)): 3090 hr*ng/mL/(mg/kg)
- AUC0-∞ (norm) (1600 mg single dose (A6)): 3740 hr*ng/mL/(mg/kg)
- Ae0-24 (1600 mg single dose (A6)): 145 mg
- CL/F (1600 mg single dose (A6)): 307 mL/min
- CL/F(norm) (1600 mg single dose (A6)): 4.46 (mL/min)/kg
- Cmax (norm) (1600 mg single dose (A6)): 235 ng/mL/(mg/kg)
- fe0-24 (1600 mg single dose (A6)): 9.1% and 9.09%
- λZ (1600 mg single dose (A6)): 0.0351 h⁻¹
- % AUCextrap (1600 mg single dose (A6)): 6.57%
- Dose proportionality of systemic exposure (Cmax and AUC) (200-mg dose and greater): less than proportional
- Fold increase in AUC0-t [2]: 16.4 fold
- Fold increase in AUC0-∞ [2]: 17.1 fold
- Fold increase in Cmax [2]: 6.5 fold
- Dose proportionality of systemic exposure (Cmax and AUC) (between 25 and 75 mg): dose-proportional; also recorded: consistent with linear PK
- AUC(0-inf) (oral, 25 mg single dose (A1)): 4600 ng·h/mL
- AUC(0-t) (oral, 25 mg single dose (A1)): 4550 ng·h/mL
- Cmax (oral, 25 mg single dose (A1)): 913 ng/mL
- Vd/F (oral, 25 mg single dose (A1), read-out: Vz/F): 28.3 L
- Vd/F (oral, 25 mg single dose (A1), read-out: Vz/F(norm)): 0.384 L/kg
- half-life (oral, 25 mg, 25 mg single dose (A1)): 3.6 h
- Tmax (oral, 25 mg, 25 mg single dose (A1), median, read-out: tmax): 1.5 h
- AUC(0-inf) (oral, 75 mg single dose (A2)): 13000 ng·h/mL
- AUC(0-t) (oral, 75 mg single dose (A2)): 13000 ng·h/mL
- Cmax (oral, 75 mg single dose (A2)): 2250 ng/mL
- Vd/F (oral, 75 mg single dose (A2), read-out: Vz/F): 41.7 L
- Vd/F (oral, 75 mg single dose (A2), read-out: Vz/F(norm)): 0.574 L/kg
- half-life (oral, 75 mg, 75 mg single dose (A2)): 5 h
- Tmax (oral, 75 mg, 75 mg single dose (A2), median, read-out: tmax): 1.25 h
- Tmax (oral, 75 mg, 25 and 75 mg doses, read-out: tmax, latest individual value): ≤ 2.5 h
- AUC(0-inf) (oral, 200 mg single dose (A3)): 32600 ng·h/mL
- AUC(0-t) (oral, 200 mg single dose (A3)): 32300 ng·h/mL
- Cmax (oral, 200 mg single dose (A3)): 3060 ng/mL
- Vd/F (oral, 200 mg single dose (A3), read-out: Vz/F): 102 L
- Vd/F (oral, 200 mg single dose (A3), read-out: Vz/F(norm)): 1.37 L/kg
- half-life (oral, 200 mg, 200 mg single dose (A3)): 10.2 h
- Tmax (oral, 200 mg, 200 mg single dose (A3), median, read-out: tmax): 1.75 h
- AUC(0-inf) (oral, 400 mg single dose (A4)): 55100 ng·h/mL
- AUC(0-t) (oral, 400 mg single dose (A4)): 53800 ng·h/mL
- Cmax (oral, 400 mg single dose (A4)): 4510 ng/mL
- Vd/F (oral, 400 mg single dose (A4), read-out: Vz/F): 122 L
- Vd/F (oral, 400 mg single dose (A4), read-out: Vz/F(norm)): 1.74 L/kg
- half-life (oral, 400 mg, 400 mg single dose (A4)): 11.7 h
- Tmax (oral, 400 mg, 400 mg single dose (A4), median, read-out: tmax): 2.5 h
- AUC(0-inf) (oral, 800 mg single dose (A5)): 78700 ng·h/mL
- AUC(0-t) (oral, 800 mg single dose (A5)): 74500 ng·h/mL
- Cmax (oral, 800 mg single dose (A5)): 5910 ng/mL
- Vd/F (oral, 800 mg single dose (A5), read-out: Vz/F): 234 L
- Vd/F (oral, 800 mg single dose (A5), read-out: Vz/F(norm)): 3.26 L/kg
- half-life (oral, 800 mg, 800 mg single dose (A5)): 11.3 h
- Tmax (oral, 800 mg, 800 mg single dose (A5), median, read-out: tmax): 1.8 h
- AUC(0-inf) (oral, 1600 mg single dose (A6)): 86900 ng·h/mL
- AUC(0-t) (oral, 1600 mg single dose (A6)): 73600 ng·h/mL
- Cmax (oral, 1600 mg single dose (A6)): 5580 ng/mL
- Vd/F (oral, 1600 mg single dose (A6), read-out: Vz/F): 525 L
- Vd/F (oral, 1600 mg single dose (A6), read-out: Vz/F(norm)): 7.62 L/kg
- half-life (oral, 1600 mg, 1600 mg single dose (A6)): 19.8 h
- Tmax (oral, 1600 mg, 1600 mg single dose (A6), median, read-out: tmax): 2 h
- Tmax (oral, higher dose levels (200 to 1600 mg), read-out: tmax, latest individual value): ≤ 6 h
- Tmax (po, single oral doses 25 to 1600 mg, read-out: Median tmax, range across all doses): 1.3 to 2.5 h
- CL renal (urine and plasma, oral, 400 mg single dose (A4)): 49.7 mL/min
- CL renal (urine and plasma, oral, 800 mg single dose (A5)): 48.5 mL/min
- CL renal (urine and plasma, oral, 1600 mg single dose (A6)): 47.6 mL/min
- CL renal (urine, oral, 25 mg single dose (A1)): 70.5 mL/min
- CL renal (urine, oral, 75 mg single dose (A2)): 71.8 mL/min
- CL renal (urine, oral, 200 mg single dose (A3)): 63.5 mL/min
